Ends that are not written are not given here.
Key:
M. luteus ATCC 4698 = experiment: MIC, broth dilution; assay type: cell-based, Micrococcus luteus; conditions: Table 4; liquid broth
Method: MIC determination. MICs were measured using peptides with 95% purity. For bacterial studies, cation-adjusted Mueller Hinton (MH) broth was used as the growth medium whereas Yeast Peptone Dextrose (YPD; 10 g/L yeast extract, 20 g/L peptone, 20 g/L dextrose) was used for Candida spp. and other yeast. Microorganisms were diluted to an optical density of […] in MH or YPD broth and a 180 μl volume was mixed with 20 μl of peptide arrayed as a 2-fold dilution series in a flat-bottom 96-well microtitre plate. A control was performed using 20 μl of sterile water. Plates were incubated as standing cultures overnight at 37° C.
Determination of minimum inhibitory concentrations. The MICs were measured for bioactive peptides identified from the initial screen. For bacterial studies, cation-adjusted Mueller Hinton (MH) broth was used as the growth medium whereas YPD was used for C. albicans. Bacterial cultures were diluted to a OD value of 6×10^−4 in MH broth and a 180 μl volume was mixed with 20 μl of peptide arrayed as 2-fold dilution series in a 96-well plate. For the positive control, 20 μl of sterile water was used. Plates were incubated as standing cultures overnight at 37° C. The lowest peptide concentration that resulted no observed microbial growth after an overnight treatment was defined as the MIC.

S. aureus ATCC 29213 [1] = experiment: MIC, broth dilution; assay type: cell-based, Staphylococcus aureus; conditions: for MIC (μg/mL) S. aureus: liquid broth
Method in brief: (§1)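 Peptides (95% purity) were serially diluted 2-fold and mixed with bacteria diluted to OD 6×10^−4 in cation-adjusted Mueller Hinton broth. Standing cultures were incubated overnight at 37° C. MIC was the lowest peptide concentration with no observed growth.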

[2] = test system: Mannheimia haemolytica ATCC 33393; experiment: MIC, broth dilution; assay type: cell-based; conditions: Table 10; liquid broth
Method in brief: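 Peptides (95% purity) in 2-fold dilution series were mixed with M. haemolytica diluted to OD 6×10^−4 in cation-adjusted Mueller Hinton broth and incubated standing overnight at 37 °C. MIC was the lowest concentration with no visible growth.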

S. aureus ATCC 29213 [3] = experiment: Spot-on-lawn assay; assay type: cell-based, Staphylococcus aureus; conditions: 50 μg peptide spotted on agar
Method: Spot-on-lawn assay. For the initial screen, peptides of ≥70% purity were used. Each peptide was resuspended in sterile water to a concentration of 10 mg/ml. To determine antimicrobial activities a spot-on-lawn assay was performed. M. luteus and S. aureus were used as indicator strains. To prepare test organisms, the optical density (OD) of overnight cultures were measured and the organisms were diluted to an initial OD of 0.05 in soft nutrient agar (0.4% w/v) at 50° C. Next, 3 mL of soft agar containing a test organism was overlaid on a solid 1.5% w/v nutrient agar plate (LB). A total of 50 μg of each peptide was spotted on the inoculated surface and plates were incubated for 16 to 48 h before being examined for zones of inhibition.
(§2) SspA protease treatment. SspA protease was resuspended at 2 mg/mL in 100 mM HEPES, pH 7.8. Proteolysis was achieved by incubation of 50 μg PSMs at 37° C. for ˜5 hours with 0.2 mg/mL SspA. The antimicrobial activity of the proteolytic products were assayed by spotting a 5 μL (˜45 μg) from each treated peptide on each test microorganism as described above.

[4] = test system: S. aureus ATCC 33592 (MRSA SCCmec type III); experiment: MIC, broth dilution; assay type: cell-based, Staphylococcus aureus; conditions: Table 5; STIP3 variants, highest concentration 100 μg/mL
Method in brief: as §1

[5] = test system: S. aureus ATCC BAA-2094 (MRSA SCCmec type V); experiment: MIC, broth dilution; assay type: cell-based, Staphylococcus aureus; conditions: Table 5; STIP3 variants, highest concentration 100 μg/mL
Method in brief: as §1

[6] = test system: S. aureus ATCC BAA-2313 (MRSA SCCmec type XI); experiment: MIC, broth dilution; assay type: cell-based, Staphylococcus aureus; conditions: Table 5; STIP3 variants, highest concentration 100 μg/mL
Method in brief: as §1

[7] = test system: S. aureus ATCC BAA-41 (MRSA SCCmec type II); experiment: MIC, broth dilution; assay type: cell-based, Staphylococcus aureus; conditions: Table 5; STIP3 variants, highest concentration 100 μg/mL
Method in brief: as §1

[8] = test system: S. aureus ATCC BAA-42 (MRSA SCCmec type VI); experiment: MIC, broth dilution; assay type: cell-based, Staphylococcus aureus; conditions: Table 5; STIP3 variants, highest concentration 100 μg/mL
Method in brief: as §1

[9] = test system: S. aureus ATCC BAA-44 (MRSA SCCmec type I); experiment: MIC, broth dilution; assay type: cell-based, Staphylococcus aureus; conditions: Table 5; STIP3 variants, highest concentration 100 μg/mL
Method in brief: as §1

C. albicans MYA-2876 = experiment: MIC, YPD broth; assay type: cell-based, Candida albicans; conditions: Table 8
Method in brief: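 Minimum inhibitory concentrations against Candida albicans were determined in YPD broth (10 g/L yeast extract, 20 g/L peptone, 20 g/L dextrose) using peptides of 95% purity. A 180 μl volume of diluted yeast was combined with 20 μl of peptide in a 2-fold dilution series in 96-well plates, with sterile water as control, then incubated standing overnight at 37° C.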

Candida krusei AR 397 = experiment: MIC, YPD broth, CDC and FDA AR Candida isolate panel; assay type: cell-based; conditions: Table 9 top part: titrations from 1.56 to 100 μg/mL
Method in brief: (§3)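 Peptide purity was 95%. Doubling dilutions were tested against yeast set at an optical density of […], with overnight standing incubation at 37° C and a sterile-water control.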

[10] = test system: Candida lusitaniae AR 398; experiment: as above; assay type: cell-based; conditions: Table 9 top part: titrations from 1.56 to 100 μg/mL
Method in brief: as §3

[11] = test system: Saccharomyces cerevisiae AR 399; experiment: as above; assay type: cell-based; conditions: Table 9 top part: titrations from 1.56 to 100 μg/mL
Method in brief: as §3

[12] = test system: Saccharomyces cerevisiae AR 400; experiment: as above; assay type: cell-based; conditions: Table 9 top part: titrations from 1.56 to 100 μg/mL
Method in brief: as §3

HeLa cells = assay type: cell-based; conditions: 24 h, alamarBlue
Method: Peptide cytotoxicity. In vitro cytotoxicity was measured using the 3D EpiDerm skin tissues and HeLa Cells using a fluorescent reporter of cell viability, alamarBlue (ThermoFisher Scientific). 3D EpiDerm skin tissues (MatTek EPI-200-AFAB) were transferred to a 12 well plate containing 600 μL of AFAB-assay medium supplemented with 10% v/v alamarBlue. […] HeLa cells were seeded in a 96-well plate (2×10^4 cells/per well) and incubated overnight at 37° C. and 5% CO2 in a humidified incubator to prepare wells at ˜50% confluency of adherent cells. After the incubation, spent DMEM was removed and cells were washed with PBS. alamarBlue-containing medium was prepared by mixing Phenol Red-free DMEM with alamarBlue solution at a 9:1 ratio and a 180 μl volume was added to each well. Cells were treated with peptides varying from 3.25 to 200 μg/mL and then incubated for 24 h. The fluorescence intensities of treated cultures were normalized to values measured for an untreated control group. After the 24 h incubation period, alamarBlue fluorescence was measured at 590 nm upon excitation at 560 nm using Varioskan Lux plate reader (Thermo Scientific) plate reader.

SspA protease = SspA protease (Staphylococcus aureus, UniProt P0C1U8); experiment: SspA protease treatment, LC/MS analysis; assay type: in vitro ADME; conditions: in vitro, 37° C., ˜5 hours
Sequence of SspA protease (P0C1U8 69-336): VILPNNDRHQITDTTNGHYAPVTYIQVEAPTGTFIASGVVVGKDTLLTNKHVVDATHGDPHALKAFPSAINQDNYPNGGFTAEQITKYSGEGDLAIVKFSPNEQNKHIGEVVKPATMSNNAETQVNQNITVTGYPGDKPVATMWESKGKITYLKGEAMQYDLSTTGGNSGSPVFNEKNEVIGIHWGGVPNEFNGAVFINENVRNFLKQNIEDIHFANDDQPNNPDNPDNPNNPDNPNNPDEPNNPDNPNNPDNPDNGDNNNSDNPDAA
Method: as §2
HPLC/MS analysis. High performance liquid chromatography coupled to mass spectrometry (HPLC-MS) was conducted to assess the proteolytic cleavage of synthetic PSMs by the SspA protease, as described above. Both treated samples and untreated controls were incubated at 37° C. for 5 hours, and then frozen until HPLC/MS analysis. An Agilent Infinity II 1260 HPLC outfitted with a Phenomenex Lune C5 column (4.6×150 mm, 5 μm) was used to separate the peptide fragments using a binary solvent system consisting of solvent A (water, 0.05% formic acid) and solvent B (acetonitrile, 0.05% formic acid) operating at 0.7 mL/min. A 5 μl volume (˜4.5 μg) of each sample was injected at 10% solvent B, followed by a two-step gradient elution from 10 to 50% solvent B in 30 minutes, then 50 to 100% B in 10 minutes. The HPLC was coupled to an Advion CMS(L) single quadrupole mass detector through an electrospray ionization source. A line splitter from the HPLC to ESI source was used to deliver sample to the mass detector at 0.3 mL/min. An Advion expression-L CMS detector was used at low temperature and fragmentation settings: capillary temperature: 135° C., capillary voltage 120 V, source voltage offset 20 V, source gas temperature 135° C. and ESI voltage 3500 V. The range of ions detected was between 100 and 2,000 m/z.

Sequence: TVGGLVKWILDAVKKFA [T12A, TVGGLVKWILDAVKKFA]
- MIC (μg/mL) M. luteus (M. luteus ATCC 4698): 12.5 µg/mL
- MIC (μg/mL) S. aureus (S. aureus ATCC 29213 [1]; Table 4): 100 µg/mL
- MIC (μg/mL) M. haemolytica [2]: 50 µg/mL
- inhibition of S. aureus, spot-on-lawn (S. aureus ATCC 29213 [3]): observed to inhibit S. aureus

Sequence: TVGGLVKWILDTVAKFA [K14A, TVGGLVKWILDTVAKFA]
- MIC (μg/mL) M. luteus (M. luteus ATCC 4698): 12.5 µg/mL
- MIC (μg/mL) S. aureus (S. aureus ATCC 29213 [1]; Table 4): >^b (> = >200 μg/mL (maximum concentration tested))
- MIC (μg/mL) S. aureus (S. aureus ATCC 29213 [1]; Table 10): >^b (the use of > indicates an MIC > 200 μg/mL; the maximum concentration tested)
- MIC (μg/mL) M. haemolytica [2]: 100 µg/mL
- inhibition of S. aureus, spot-on-lawn (S. aureus ATCC 29213 [3]): observed to inhibit S. aureus

Sequence: TVGGLVKWILDTVKAFA [K15A, TVGGLVKWILDTVKAFA]
- MIC (μg/mL) M. luteus (M. luteus ATCC 4698): 25 µg/mL
- MIC (μg/mL) S. aureus (S. aureus ATCC 29213 [1]; Table 4): >^b (> = >200 μg/mL (maximum concentration tested))
- MIC (μg/mL) S. aureus (S. aureus ATCC 29213 [1]; Table 10): >^b (the use of > indicates an MIC > 200 μg/mL; the maximum concentration tested)
- MIC (μg/mL) M. haemolytica [2]: 50 µg/mL
- inhibition of S. aureus, spot-on-lawn (S. aureus ATCC 29213 [3]): observed to inhibit S. aureus

Sequence: TVGGLVKWILDTVKKFA [STIP3-1, TVGGLVKWILDTVKKFA]
- MIC (μg/mL) M. luteus (M. luteus ATCC 4698): 12.5 µg/mL
- MIC (μg/mL) S. aureus (S. aureus ATCC 29213 [1]; Table 4): 100 µg/mL
- MIC S. aureus ATCC 29213 (S. aureus ATCC 29213 [1]; Table 5, STIP3 variants, highest concentration 100 μg/mL): 100 µg/mL
- MIC S. aureus ATCC 33592 (III) [4]: 100 µg/mL
- MIC S. aureus ATCC BAA 2094 (V) [5]: 100 µg/mL
- MIC S. aureus ATCC BAA 2313 (XI) [6]: 100 µg/mL
- MIC S. aureus ATCC BAA 41 (II) [7]: 100 µg/mL
- MIC S. aureus ATCC BAA 42 (VI) [8]: 100 µg/mL
- MIC S. aureus ATCC BAA 44 (I) [9]: 100 µg/mL
- MIC C. albicans MYA-2876 (C. albicans MYA-2876): 25 µg/mL
- MIC (μg/mL) Candida krusei AR 397 (Candida krusei AR 397): 25 µg/mL
- MIC (μg/mL) Candida lusitaniae AR 398 [10]: 100 µg/mL
- MIC (μg/mL) Saccharomyces cerevisiae AR 399 [11]: 50 µg/mL
- MIC (μg/mL) Saccharomyces cerevisiae AR 400 [12]: 12.5 µg/mL
- IC50, HeLa cell survival (HeLa cells): 200 ± 30 µg/mL
- susceptibility to SspA cleavage (SspA protease): cleave the bioactive peptide into an inactive mixture

From patent publication US12370235B2, “Synthetic, non-natural antimicrobial peptides inspired by Staphylococcus auricularis delta toxin” (University of Saskatchewan, priority 2021, dated 2025)
